Where a name gives a salt, the structure may show the parent alone.

The subject of one assay is IL-6. Put plainly: Measurement of LPS Induced IL-6 Secretion from Whole Blood. It is filed as cell-based. To be noted: 24 h, LPS 200 ng/ml, immunoassay, read-out: pIC50, LPS induced IL-6 secretion from whole blood (converted). How it is done: Measurement of LPS Induced IL-6 Secretion from Whole Blood
Activation of monocytic cells by agonists of toll-like receptors such as bacterial lipopolysaccharide (LPS) results in production of key inflammatory mediators including IL-6. Such pathways are widely considered to be central to the pathophysiology of a range of auto-immune and inflammatory disorders.
Compounds to be tested are diluted to give a range of appropriate concentrations of which 1 ul of the diluted stocks is added to a 96 well plate. Following addition of whole blood (130 ul) the plates are incubated at 37 degrees (5% CO2) for 30 min before the addition of 10 ul of 2.8 ug/ml LPS, diluted in complete RPMI 1640 (final concentration=200 ng/ml), to give a total volume of 140 ul per well. After further incubation for 24 hours at 37 degrees, 140 ul of PBS are added to each well. The plates are sealed, shaken for 10 minutes and then centrifuged (2500 rpm×10 min). 100 ul of the supernatant are removed and IL-6 levels assayed by immunoassay (typically by MesoScale Discovery technology) either immediately or following storage at −20 degrees. Concentration response curves for each compound was generated from the data and an IC50 value was calculated.
`CC(=O)N1c2ccc(-c3nnc(C)s3)cc2[C@H](NC(=O)OC(C)C)C[C@@H]1C` [Example 68, 1-Methylethyl[(2S,4R)-1-acetyl-2-methyl-6-(5-methyl-1,3,4-thiadiazol-2-yl)-1,2,3,4-tetrahydro-4-quinolinyl]carbamate]: the IC50 is not above 31.6 µM.

Consider `CC(=O)N1c2ccc(-c3noc(C)n3)cc2[C@H](NC(=O)OC(C)C)C[C@@H]1C` [Example 64, 1-Methylethyl[(2S,4R)-1-acetyl-2-methyl-6-(5-methyl-1,2,4-oxadiazol-3-yl)-1,2,3,4-tetrahydro-4-quinolinyl]carbamate], for which the IC50 is not above 31.6 µM.

`CC(=O)N1c2ccc(-c3ccc(N)nc3)cc2[C@H](NC(=O)OC(C)C)C[C@@H]1C` [Example 110, 1-methylethyl[(2S,4R)-1-acetyl-6-(6-amino-3-pyridinyl)-2-methyl-1,2,3,4-tetrahydro-4-quinolinyl]carbamate]: the IC50 was not above 31.6 µM.

Turning to `CC(=O)N1c2ccc(-c3ccccc3C)cc2[C@H](NC(=O)OC(C)C)C[C@@H]1C` [Example 93, 1-Methylethyl[(2S,4R)-1-acetyl-2-methyl-6-(2-methylphenyl)-1,2,3,4-tetrahydro-4-quinolinyl]carbamate], the IC50 is not above 31.6 µM.

On to `CC(=O)N1c2ccc(-c3ccc(CCO)cc3)cc2[C@H](NC(=O)OC(C)C)C[C@@H]1C` [Example 95, 1-Methylethyl {(2S,4R)-1-acetyl-6-[4-(2-hydroxyethyl)phenyl]-2-methyl-1,2,3,4-tetrahydro-4-quinolinyl}carbamate], for which the IC50 was not above 31.6 µM.

Consider `CC(=O)N1c2ccc(-c3ccccc3)cc2[C@H](NC(=O)OC(C)C)C[C@@H]1C` [Example 94, 1-Methylethyl[(2S,4R)-1-acetyl-2-methyl-6-phenyl-1,2,3,4-tetrahydro-4-quinolinyl]carbamate], for which the IC50 was not above 31.6 µM.

With `CC(=O)N1c2ccc(-n3cnc(C(=O)O)c3)cc2[C@@H](NC(=O)OC(C)C)C[C@H]1C` (racemic) [Example 87, 1-[(Cis)-1-acetyl-2-methyl-4-({[(1-methylethyl)oxy]carbonyl}amino)-1,2,3,4-tetrahydro-6-quinolinyl]-1H-imidazole-4-carboxylic acid], the IC50 was not above 31.6 µM.

As to `CC(=O)N1c2ccc(-c3cn(CCN)nn3)cc2[C@H](NC(=O)OC(C)C)C[C@@H]1C` [Example 79, 1-Methylethyl {(2S,4R)-1-acetyl-6-[1-(2-aminoethyl)-1H-1,2,3-triazol-4-yl]-2-methyl-1,2,3,4-tetrahydro-4-quinolinyl}carbamate hydrochloride], the IC50 was not above 31.6 µM.

With `CC(=O)N1c2ccc(-c3nc(CCN)no3)cc2[C@H](NC(=O)OC(C)C)C[C@@H]1C` [Example 70, 1-Methylethyl {(2S,4R)-1-acetyl-6-[3-(2-aminoethyl)-1,2,4-oxadiazol-5-yl]-2-methyl-1,2,3,4-tetrahydro-4-quinolinyl}carbamate hydrochloride], the IC50 is not above 31.6 µM.

Another assay has as its system TNFα. In words: LPS Stimulated Whole Blood Measuring TNFα Levels Assay. The class given is cell-based. Conditions: 24 h, LPS 200 ng/ml, immunoassay, read-out: pIC50, TNFα levels in LPS stimulated whole blood (converted). How it is done: LPS Stimulated Whole Blood Measuring TNFα Levels Assay
Activation of monocytic cells by agonists of toll-like receptors such as bacterial lipopolysaccharide (LPS) results in production of key inflammatory mediators including TNFα. Such pathways are widely considered to be central to the pathophysiology of a range of auto-immune and inflammatory disorders.
Compounds to be tested are diluted to give a range of appropriate concentrations and 1 ul of the dilution stocks is added to wells of a 96 plate. Following addition of whole blood (130 ul) the plates are incubated at 37 degrees (5% CO2) for 30 min before the addition of 10 ul of 2.8 ug/ml lipopolysaccharides (LPS), diluted in complete RPMI 1640 (final concentration=200 ng/ml), to give a total volume of 140 ul per well. After further incubation for 24 hours at 37 degrees, 140 ul of PBS are added to each well. The plates are sealed, shaken for 10 minutes and then centrifuged (2500 rpm×10 min). 100 ul of the supernatant are removed and TNFα levels assayed by immunoassay (typically by MesoScale Discovery technology) either immediately or following storage at −20 degrees. Dose response curves for each compound was generated from the data and an IC50 value was calculated.
In the case of `CC(=O)N1c2ccc(-c3ccn[nH]3)cc2[C@@H](NC(=O)OC(C)C)C[C@H]1C` (racemic) [Example 31, 1-methylethyl[(cis)-1-acetyl-2-methyl-6-(1H-pyrazol-5-yl)-1,2,3,4-tetrahydro-4-quinolinyl]carbamate], the IC50 is not above 6.31 µM.

As to `CC(=O)N1c2ccc(-c3ccc(CN4CCCC4)cc3)cc2[C@H](NC(=O)OC(C)C)C[C@@H]1C` (relative stereo) [Example 30, 1-methylethyl {(cis)-1-acetyl-2-methyl-6-[4-(1-pyrrolidinylmethyl)phenyl]-1,2,3,4-tetrahydro-4-quinolinyl}carbamate hydrochloride], the IC50 was not above 6.31 µM.

Turning to `CNCc1cccc(-c2ccc3c(c2)[C@H](NC(=O)OC(C)C)C[C@H](C)N3C(C)=O)c1` [Example 111, 1-Methylethyl((2S,4R)-1-acetyl-2-methyl-6-{3-[(methylamino)methyl]phenyl}-1,2,3,4-tetrahydro-4-quinolinyl)carbamate hydrochloride], the IC50 was not above 6.31 µM.

Turning to `CNc1ccc(-c2ccc3c(c2)[C@@H](NC(=O)OC(C)C)C[C@@H](C)N3C(C)=O)cn1` (racemic) [Example 53, 1-methylethyl {(cis)-1-acetyl-2-methyl-6-[6-(methylamino)-3-pyridinyl]-1,2,3,4-tetrahydro-4-quinolinyl}carbamate hydrochloride], the IC50 is not above 6.31 µM.

Take `CC(=O)N1c2ccc(-c3cnc(N4CCNCC4)cn3)cc2[C@@H](NC(=O)OC(C)C)C[C@H]1C` (racemic) [Example 43, 1-methylethyl {(cis)-1-acetyl-2-methyl-6-[5-(1-piperazinyl)-2-pyrazinyl]-1,2,3,4-tetrahydro-4-quinolinyl}carbamate hydrochloride]: the IC50 is not above 6.31 µM.

With `CC(=O)N1c2ccc(-c3ncc(CN4CCCCC4)s3)cc2[C@@H](NC(=O)OC(C)C)C[C@H]1C` (racemic) [Example 52, 1-methylethyl {(cis)-1-acetyl-2-methyl-6-[5-(1-piperidinylmethyl)-1,3-thiazol-2-yl]-1,2,3,4-tetrahydro-4-quinolinyl}carbamate hydrochloride], the IC50 is not above 6.31 µM.

As to `CC(=O)N1c2ccc(-c3cnn(CCN4CCCCC4)c3)cc2[C@@H](NC(=O)OC(C)C)C[C@H]1C` (racemic) [Example 46, 1-methylethyl((cis)-1-acetyl-2-methyl-6-{1-[2-(1-piperidinyl)ethyl]-1H-pyrazol-4-yl}-1,2,3,4-tetrahydro-4-quinolinyl)carbamate hydrochloride], the IC50 is not above 6.31 µM.

Consider `CC(=O)N1c2ccc(-c3cnc(N)nc3)cc2[C@@H](NC(=O)OC(C)C)C[C@H]1C` (racemic) [Example 50, 1-methylethyl[(cis)-1-acetyl-6-(2-amino-5-pyrimidinyl)-2-methyl-1,2,3,4-tetrahydro-4-quinolinyl]carbamate hydrochloride], for which the IC50 is not above 6.31 µM.

In the case of `CC(=O)N1c2ccc(-c3ccc(CN4CCCCC4)o3)cc2[C@@H](NC(=O)OC(C)C)C[C@H]1C` (racemic) [Example 22, 1-methylethyl {(cis)-1-acetyl-2-methyl-6-[5-(1-piperidinylmethyl)-2-furanyl]-1,2,3,4-tetrahydro-4-quinolinyl}carbamate (formic acid salt)], the IC50 is not above 6.31 µM.

As to `CC(=O)N1c2ccc(-c3sc(C)nc3C)cc2[C@@H](NC(=O)OC(C)C)C[C@H]1C` (racemic) [Example 32, 1-methylethyl[(cis)-1-acetyl-6-(2,4-dimethyl-1,3-thiazol-5-yl)-2-methyl-1,2,3,4-tetrahydro-4-quinolinyl]carbamate], the IC50 is not above 6.31 µM.

As for `CC(=O)N1c2ccc(-c3ccc(CN4CCCCC4)cc3)cc2[C@H](N(C)C(=O)OC(C)C)C[C@@H]1C` (racemic) [Example 42, formic acid-1-methylethyl {(cis)-1-acetyl-2-methyl-6-[4-(1-piperidinylmethyl)phenyl]-1,2,3,4-tetrahydro-4-quinolinyl}methylcarbamate (1:1)], the IC50 is not above 6.31 µM.

Consider `CC(=O)N1c2ccc(-c3ccc(N4CCCCC4)nc3)cc2[C@@H](NC(=O)OC(C)C)C[C@H]1C` (racemic) [Example 11, 1-methylethyl {(cis)-1-acetyl-2-methyl-6-[6-(1-piperidinyl)-3-pyridinyl]-1,2,3,4-tetrahydro-4-quinolinyl}carbamate hydrochloride], for which the IC50 was not above 6.31 µM.
